SMILES strings stand for the structures.

In general, melting point refers to the temperature, or range, at which the solid turns liquid. In turn, `NC(=O)C=Cc1cccnc1` came in with a melting point of 149 to 151 °C.
The value for `Nc1ccc(OCc2ccccn2)c(Cl)c1` was 91 to 93 °C; that for `Sc1nnc(-c2ccncc2)o1` was 270 to 275 °C; that for `O=C(O)c1coc(-c2ccccc2)n1` was 209 to 211 °C.
To `O=Cc1c(Cl)nc2ccccn12` belongs 124 to 126 °C.
The value for `Nc1ccc(-c2ncno2)cc1` was 99 to 101 °C; that for `O=c1[nH]c(S)nc2c1cnn2-c1cccc(Cl)c1` was 255 to 257 °C; that for `CCOc1ccc(C(=O)O)cc1[N+](=O)[O-]` was 201 to 203 °C.
As for `CCOc1cccc(C(N)=S)c1`, the melting point lay in the range of 118 to 120 °C.
Turning to `O=S(=O)(Cl)c1c[nH]c2ncccc12`, the melting point lay in the range of 187 to 189 °C.
The value for `OCc1cc(Br)cs1` was 30 to 32 °C.
To `N#Cc1cn(-c2ccc(N)cc2)nc1N` belongs 195 to 197 °C; to `O=C1C(Br)CCN1c1ccc(F)c(Cl)c1` (stereo not drawn), 99 to 101 °C; to `CC1CCCC(C)N1C(=O)CCl` (stereo not drawn), 71 to 73 °C.
To `CN[C@@H]1CN(C(=O)OC(C)(C)C)C[C@H]1O` belongs 89 to 91 °C.
In the case of `CC(Sc1ccccn1)C(=O)O` (stereo not drawn), the melting point is 70 to 72 °C.
The value for `CC1CNc2c(cccc2S(N)(=O)=O)C1` (stereo not drawn) was 162 to 164 °C.
The value for `CC1C(=O)Nc2cc(C(=O)O)ccc2N1C` (stereo not drawn) was 289 to 291 °C; that for `CC(C)(C)OC(=O)c1ccc(N)cc1` was 99 to 101 °C.
To `Nc1cc(C2CCC2)no1` belongs 77 to 79 °C.
With `Sc1nnc(C2COc3ccccc3O2)o1` (stereo not drawn), the melting point lay in the range of 151 to 155 °C.
The value for `Cc1nnc2n1CC(CO)CC2` (stereo not drawn) was 158 to 160 °C; that for `CC(=O)CC(=O)Nc1ccc(NC(=O)C2CC2)cc1` was 183 to 185 °C; that for `Cc1cc(Sc2nccn2C)ccc1N` was 101 to 103 °C.
For `Nc1cc(-c2cc(F)cc(F)c2)no1`, the melting point is 114 to 116 °C.
In the case of `CC(C)n1[nH]ccc1=NC(=O)OCC(F)(F)F`, the melting point fell in the range of 77 to 79 °C.
For the molecule `N#Cc1c(F)cccc1Oc1ccc(N)cc1`, the melting point lay within 156 to 158 °C.
The value for `Nc1ccc2c(c1)NC(=O)CO2` was 215 to 217 °C.
The molecule `O=C(CCl)NCC(=O)N1CCCC1` gave a melting point of 125 to 127 °C.
The value for `Cc1cc2ncc(SC(=O)N(C)C)cn2n1` was 144 to 146 °C.
To `[N-]=[N+]=Nc1ccc(I)cc1` belongs 33 to 35 °C; to `Cc1nc(-c2cccnc2)[nH]c(=O)c1CCC(=O)O`, 279 to 281 °C.
To `COc1cccc(-c2noc(Cl)n2)c1` belongs 56 to 58 °C; to `CCCn1cnc2c1c(=O)[nH]c(=O)n2C`, 256 to 258 °C; to `Cn1ccnc1C(N)c1ccccc1` (stereo not drawn), 51 to 53 °C.
For the molecule `Cn1c(=O)n(Cc2ccc(Br)cc2)c(=O)c2ccc(C(F)(F)F)nc21`, the melting point was in the range of 103 to 105 °C.
The molecule `Nc1nc2ccccc2n1C1CCCCC1` registered a melting point of 206 to 208 °C.
To `CC(C)c1cc(C(=O)O)c2cnn(C(C)C)c2n1` belongs 144 to 146 °C; to `O=C(O)c1ccc2cc[nH]c2n1`, 209 to 211 °C.
To `Cn1cc(S(=O)(=O)Cl)cc1C(N)=O` belongs 132 to 134 °C.
To `O=C1NC(=O)N(CCc2cccs2)C1=O` belongs 118 to 120 °C; to `Cc1cc(=O)n(CC(=O)NC(C)C)c(C)c1C(=O)O`, 229 to 231 °C.
For the molecule `O=C(O)CCc1ccc([N+](=O)[O-])cn1`, the melting point was in the range of 135 to 137 °C.
To `CC(O)c1ccc(NC(=O)c2ccncc2)cc1` (stereo not drawn) belongs 174 to 176 °C; to `Cn1nnnc1SCC(=O)O`, 108 to 110 °C; to `COC(=O)c1ccc(S(=O)(=O)Cl)c(Br)c1`, 82 to 84 °C.
To `Cc1ccccc1OCCCC(=O)Nc1ccc(CN)cc1` belongs 82 to 84 °C; to `CC(C)CNS(=O)(=O)c1ccc(C#N)cc1`, 99 to 101 °C.
To `COc1ccc2nc(Cl)ccc2c1` belongs 103 to 105 °C; to `O=C(O)c1nn(-c2ccc(Br)cc2)c2c1CCCC2`, 232 to 234 °C.
With `O=C(CCl)NCC1CCN(c2ccccc2)C1` (stereo not drawn), the melting point was in the range of 61 to 63 °C.
The value for `Cc1cc(C(=O)c2cccnc2)ccc1F` was 86 to 88 °C; that for `CCO/C=C(\C#N)c1nc(C)cs1` was 70 to 72 °C.
The value for `COc1cc(C=O)c([N+](=O)[O-])cc1OCC(=O)O` was 179 to 181 °C; that for `COc1cccc(C(=O)NN)c1O` was 144 to 146 °C.
To `Cc1ncc(CN)n1-c1ccccc1` belongs 46 to 48 °C; to `ClCc1csc(COc2ccccc2)n1`, 49 to 51 °C; to `CN(C1CCCCC1)S(=O)(=O)c1ccc(N)cc1`, 142 to 144 °C.
Consider `O=C1CCCC1c1ccc(Cl)c(Cl)c1` (stereo not drawn), for which the melting point lay in the range of 63 to 65 °C.
The value for `O=C1CCCc2ccc(F)cc21` was 56 to 58 °C.
Turning to `Cc1nnc(-c2ccc(Br)c(F)c2)o1`, the melting point fell in the range of 138 to 140 °C.
`Fc1ccc(OCC2CNCCO2)cc1F` (stereo not drawn) had a melting point of 49 to 51 °C.
To `O=C(O)c1cc(-c2cccc(F)c2)no1` belongs 189 to 191 °C; to `Clc1cccc2c1NCC2`, 29 to 31 °C.
Take `Nc1cccn(Cc2ccccc2)c1=O`: the melting point was 119 to 121 °C.
In turn, `Nc1ccc(Oc2ccnc3cc(Cl)ccc23)c(F)c1` had a melting point of 154 to 156 °C.
The value for `NC(=O)c1cc(=NCC2CCCO2)cc[nH]1` (stereo not drawn) was 123 to 125 °C.
`Cc1ccc(C(=O)NO)cc1O` came in with a melting point of 169 to 171 °C.
For the molecule `O=C(CCl)NC(Cc1ccccc1)c1ccccc1` (stereo not drawn), the melting point fell in the range of 219 to 221 °C.
To `CS(=O)(=O)c1ccc(Cl)c(C(=O)O)c1` belongs 183 to 185 °C; to `O=C(O)C1(O)CCCC1`, 84 to 86 °C; to `CSc1ccc(OCCCl)cc1`, 63 to 65 °C.
The value for `O=Cc1cc(Cl)cc([N+](=O)[O-])c1O` was 105 to 107 °C; that for `Cc1c(C)n(Cc2ccco2)c2ncnc(N)c12` was 180 to 182 °C; that for `O=C(Nc1ccccc1O)C1CC1` was 136 to 138 °C.
The value for `NNC(=O)Cc1ccc(F)cc1` was 129 to 131 °C; that for `CN(Cc1c(F)cccc1Cl)C(=O)CCl` was 54 to 56 °C; that for `N#Cc1ccc2[nH]cc(C=O)c2c1` was 239 to 241 °C.
`CCC1(CC)NC(=O)NC1=O` returned a melting point of 180 to 182 °C.
The value for `CCC1(CC)CC(=O)NC1=O` was 82 to 84 °C; that for `Cc1nc(N)ccc1C=CC(=O)O` was 253 to 255 °C.
In turn, `Oc1cnnc(S)n1` displayed a melting point of 244 to 246 °C.
To `Cc1ccccc1-n1nc(C(=O)O)c2c1CCC2` belongs 205 to 207 °C; to `CC(C)c1[nH]nc(C(=O)O)c1[N+](=O)[O-]`, 149 to 151 °C.
For `Cc1ccc(C#N)c(N2CCOCC2)c1`, the melting point fell in the range of 86 to 88 °C.
To `O=S1CCNc2ccccc21` (stereo not drawn) belongs 201 to 203 °C.
To `FC(F)(F)CNC(=S)N1CCOCC1` belongs 103 to 105 °C; to `CCC(NC(=O)OC(C)(C)C)c1ccccc1O` (stereo not drawn), 111 to 113 °C.

Source of the values: a melting point compilation (Tetko et al.).
